Reference: US20240366539A1, “METHODS FOR TREATING AUTISM SPECTRUM DISORDERS” (INSTITUT NATIONAL DE LA SANTÉ ET DE LA RECHERCHE MÉDICALE, priority 2021, published 2024)

Legend:
Oprm1^−/− mice [1] = experiment: Direct social interaction test; assay type: in vivo, mouse
Experimental: (§1) Mice were treated with vehicle (NaCl 0.9%; ip, 10 or 20 ml/kg), NaBr (Sigma-Aldrich, Saint-Quentin Fallavier, France) administered either chronically (once a day, 10, 30, 70, 125, 250 and 500 mg/kg; i.p. or per os, in a volume of 20 ml/kg—except for combination with VU0155041: […]) or acutely (250 mg/kg, 20 ml/kg), KBr (Sigma-Aldrich, Saint-Quentin Fallavier, France; 145 mg/kg; i.p., 20 ml/kg), bumetanide (R&D systems, Minneapolis, USA, 0.5 and 2 mg/kg; i.p., 20 ml/kg) or VU0155041 (Cayman Chemicals, Ann Arbor, USA, once a day, i.p., 1 mg/kg, 10 ml/kg). […] When treatment was given chronically, behavioral testing started 8 days after beginning of daily administration. Treatment was maintained for 8 to 18 consecutive days (see timelines in FIGS. 1 and 4), allowing thorough behavioral phenotyping. On testing days, or when treatment was given acutely, drugs (or vehicle) were administered 30 min before behavioral assays.
When assessing effects of chronic administration, experiments were performed successively (timelines in FIGS. 1 and 4) (51, 60). Testing order was chosen to minimize the incidence of anxiety on later assays. Direct social interaction and novelty suppressed feeding were performed in 4 equal square arenas (open fields, 50×50 cm) separated by 35 cm-high opaque grey Plexiglas walls over a white Plexiglas platform (View Point, Lyon, France). Stimulus mice used for the three-chamber test were 8-14-week-old grouped-housed male or female wild-type mice, socially naive to the experimental animals.
Direct social interaction test. On testing day, a pair of unfamiliar mice (not cage mates, age-, sex- and treatment-matched) was introduced in each arena for 10 min (15 lx). Each arena received a black plastic floor (transparent to infrared). […] The mean duration of nose and paw contacts was calculated from previous data (61-63).

Oprm1^−/− mice [2] = experiment: Marble-burying; assay type: in vivo, mouse
Experimental: as §1
Marble-burying. Marble burying was used as a measure of perseverative behavior (68). Mice were introduced individually in transparent cages (21×11×17 cm) containing 20 glass marbles (diameter: 1.5 cm) evenly spaced on 4-cm deep fresh sawdust. To prevent escapes, each cage was covered with a filtering lid. Light intensity in the room was set at 40 lux. The animals were removed from the cages after 15 min, and the number of marbles buried more than half in sawdust was quoted.

Oprm1^−/− mice [3] = experiment: Three-chamber social preference test; assay type: in vivo, mouse
Experimental: as §1
(§2) Three-chamber social preference test. The test apparatus consisted of a transparent acrylic box (exterior walls blinded with black plastic film); partitions divided the box into three equal chambers (40×20×22.5 cm). Two sliding doors (8×5 cm) allowed transitions between chambers. Cylindrical wire cages (18×9 cm, 0.5 cm diameter-rods spaced 1 cm apart) were used to contain the mouse interactor and object (soft-toy mouse). The test was performed in low-light conditions (15 lx) to minor anxiety. Stimulus wild-type mice were habituated to confinement in wire cages for 2 days before the test (20 min/day). On testing day, the experimental animal was introduced to the middle chamber and allowed to explore the whole apparatus for a 10-min habituation phase (wire cages empty) after the sliding doors were raised. The experimental mouse was then confined back in the middle-chamber while the experimenter introduced an unfamiliar wild type age and sex-matched animal into a wire cage in one of the side-chambers and a soft toy mouse (8×10 cm) in the second wire cage as a control for novelty. Then the experimental mouse was allowed to explore the apparatus for a 10-min interaction phase. The time spent in each chamber, the time spent in nose contact with each wire cage (empty: habituation; containing a mouse or a toy: interaction), as well as the number of these nose contacts were scored a posteriori on video recordings using an ethological keyboard (Labwatcher®, View Point, Lyon, France) by trained experimenters. […] The relative position of stimulus mice (versus toy) was counterbalanced between groups.

Shank3^Δex13-16−/− mice = experiment: Three-chamber social preference test; assay type: in vivo, mouse; conditions: Shank3Δex13-16−/− mice; chronic NaBr 250 mg/kg once daily
Experimental: as §1, §2
(§3) To this purpose, we evaluated the effects of chronic NaBr administration at the dose of 250 mg/kg on autism-sensitive behaviors in these lines (FIG. 3A).

Fmr1^−/− mice = experiment: Three-chamber social preference test; assay type: in vivo, mouse; conditions: chronic NaBr 250 mg/kg once daily
Experimental: as §1, §2, §3

[4] = stated in conclusion, no data; cited from earlier work
[5] = Oprm1−/− mice, chronic once daily, NaBr 10-500 mg/kg (effect from 125 mg/kg) or bumetanide 0.5 and 2 mg/kg, D9
[6] = Oprm1−/− mice, one week after cessation of chronic treatment (NaBr over 70 mg/kg, highest doses; bumetanide depending on the dose)
[7] = chronic NaBr (since lowest dose, 10 mg/kg) or bumetanide 0.5 and 2 mg/kg

SMILES: [Br-].[Na+] [NaBr, sodium bromide]
- social interaction in wild-type controls (Oprm1^−/− mice [1]; Oprm1+/+ mice, chronic once daily, NaBr 10-500 mg/kg or bumetanide 0.5 and 2 mg/kg): had no detectable effect in Oprm1^+/+ mice
- social interaction behavioral parameters (Oprm1^−/− mice [1]; Oprm1−/− mice, NaBr 70 mg/kg, VU0155041 1 mg/kg, alone or combined, once daily, chronic): had no detectable effects on behavioral parameters
- social interaction deficit (Oprm1^−/− mice [1]; Oprm1−/− mice, chronic once daily i.p., NaBr 10-500 mg/kg or bumetanide 0.5 and 2 mg/kg, D9): from the dose of 125 mg/kg dose-dependently relieved this deficit
- number of nose contacts (Oprm1^−/− mice [1]; Oprm1−/− mice, chronic once daily, NaBr 10-500 mg/kg (effect from 125 mg/kg) or bumetanide 0.5 and 2 mg/kg (effect at low dose), D9): restored number
- mean duration of nose contacts (Oprm1^−/− mice [1]; [5]): restored
- mean duration of paw contacts (Oprm1^−/− mice [1]; [5]): normalized
- number of paw contacts (Oprm1^−/− mice [1]; [5]): normalized number
- grooming after social contact (Oprm1^−/− mice [1]; Oprm1−/− mice, chronic once daily, NaBr 10-500 mg/kg or bumetanide 0.5 and 2 mg/kg, D9): normalized the frequency of grooming after social contact in mutants, since the dose of 70 mg/kg
- duration of nose contacts (Oprm1^−/− mice [1]; [6]): preserved restoration of the duration of nose contacts
- grooming after social contact (Oprm1^−/− mice [1]; [6]): maintained suppression of grooming after social contact
- social interaction parameters (Oprm1^−/− mice [1]; Oprm1−/− mice, single acute injection of NaBr 250 mg/kg, data not shown): had little effect on social interaction parameters
- relieving effects on social interaction (Oprm1^−/− mice [1]; Oprm1−/− mice, two weeks after cessation of chronic NaBr, data not shown): had mostly vanished after two weeks
- number of following episodes (Oprm1^−/− mice [1]; chronic once daily, NaBr 10-500 mg/kg (both mouse lines) or bumetanide (at low dose), D9): increased the number of following episodes in both mouse lines
- excessive marble burying (Oprm1^−/− mice [2]; Oprm1−/− mice, chronic NaBr 10-500 mg/kg or bumetanide 0.5 and 2 mg/kg): did not suppressed excessive burying in mutant mice
- number of buried marbles, global treatment effect (Oprm1^−/− mice [2]; both mouse lines, chronic NaBr): globally increased burying
- frequency of nose contacts with the mouse versus the toy (Oprm1^−/− mice [3]; NaBr 70 mg/kg or VU0155041 1 mg/kg, once daily, chronic): sufficient to restore more frequent nose contacts with the mouse versus the toy
- duration of nose contacts with the mouse versus the toy (Oprm1^−/− mice [3]; NaBr 70 mg/kg, VU0155041 1 mg/kg, alone or combined, once daily, chronic): fully restored longer nose contacts with the mouse
- social preference (Oprm1^−/− mice [3]; chronic NaBr 10-500 mg/kg once daily): completely restored social preference in mutant mice
- social preference ratio (Oprm1^−/− mice [3]; chronic NaBr 10-500 mg/kg or bumetanide 0.5 and 2 mg/kg): normalization of their preference ratio from 10 mg/kg NaBr and over
- duration of nose contacts with the mouse versus the toy (Oprm1^−/− mice [3]; [7]): longer
- number of nose contacts with the mouse versus the toy (Oprm1^−/− mice [3]; [7]): more frequent
- duration of nose contacts with the mouse versus the toy (Shank3^Δex13-16−/− mice): made longer nose contacts with their congener versus the toy
- number of nose contacts (Shank3^Δex13-16−/− mice): no change in the number of nose contacts
- preference ratio (Shank3^Δex13-16−/− mice): increased preference ratio
- time in contact with the mouse versus the toy (Shank3^Δex13-16−/− mice): spent more time in contact with the mouse
- duration of nose contacts with the mouse versus the object (Fmr1^−/− mice): making longer nose contacts with the mouse versus the object
- number of nose contacts with either stimulus (Fmr1^−/− mice): without modifying the number of nose contacts
- preference ratio (Fmr1^−/− mice): normalized their preference ratio
- time exploring the mouse versus the object (Fmr1^−/− mice): restored a preference for spending more time exploring the mouse
- brain penetrance [4]: excellent
- oral bioavailability [4]: excellent oral bioavailability
